Tests used:
human lymphoid cells = assay: tritiated thymidine uptake in secondary mixed lymphocyte reaction; format: cell-based; conditions: 2°-MLR; for inhibition at 740 µM / inhibition at 2200 µM / inhibition at 6700 µM / inhibition at 20000 µM: Homo sapiens, Lymphocyte
Protocol: In addition to testing the immunosuppressive activities of succinylacetone derivatives in a primary mixed lymphocyte reaction, or a phytohemagglutinin stimulation assay, two of the derivatives, succinylacetone methyl ester and methyl 4-acetyl-5-oxohexanoate, were tested in a secondary mixed lymphocyte reaction assay. The secondary mixed lymphocyte assays differs from the primary mixed lymphocyte reaction assays in that they employ many more primed responder cells that are responsive to the primary stimulating cells. The presence of such responsive cells is a reflection of immunological memory in an ongoing immunological response. […] These cells are then used in the secondary mixed lymphocyte reaction. It is worth noting that because a secondary mixed lymphocyte reaction is greatly enriched for responsive cells, fewer cells can be used in the secondary assay.
It will be appreciated that described therein is a method for carrying out secondary lymphocyte reactions using mouse cells, however such methods are generally applicable to performing secondary mixed lymphocyte reactions using human cells with modifications that are well known to those skilled in the art. […] The assays were conducted in duplicate involving lymphoid cells isolated from two individuals.

[1] = viability of peripheral blood lymphocytes with or without PHA, trypan blue exclusion; format: cell-based, human; conditions: human, peripheral blood lymphocytes; for viability at 2200 µM: 2.2 mM; for viability at 6700 µM: 6.7 mM; for viability at 20000 µM: 20 mM
Protocol: (§1) Viability was determined using the trypan blue exclusion method well known in the art. […] The assays were conducted in duplicate wherein peripheral blood lymphocytes were isolated from two separate individuals, and then treated with or without phytohemagglutinin in the presence of various concentrations of the appropriate succinylacetone derivative.

[2] = system: peripheral blood lymphocytes; assay: as above; format: cell-based, human
Protocol: as §1

[3] = system: adjuvant induced arthritis; assay: adjuvant induced arthritis in rats, overall arthritis score; intraarticular right paw, per kg: succinylacetone 325 μg, methyl ester 150 μg, 4-acetyl-5-oxohexanoate 560 μg; format: in vivo, rat

Structure (SMILES): COC(=O)CCC(=O)CC(C)=O [Succinylacetone Methyl Ester, methyl 4-6-dioxoheptanoate]
- CPM (human lymphoid cells; Exp I, 247 μM): 87337 CPM
- CPM (human lymphoid cells; Exp I, 740 μM): 67456 CPM
- CPM (human lymphoid cells; Exp I, 2.2 mM): 11778 CPM
- CPM (human lymphoid cells; Exp I, 6.7 mM): 51 CPM
- CPM (human lymphoid cells; Exp I, 20 mM): 64 CPM
- CPM (human lymphoid cells; Exp II, 247 μM): 125345 CPM
- CPM (human lymphoid cells; Exp II, 740 μM): 85447 CPM
- CPM (human lymphoid cells; Exp II, 2.2 mM): 29851 CPM
- CPM (human lymphoid cells; Exp II, 6.7 mM): 62 CPM
- CPM (human lymphoid cells; Exp II, 20 mM): 87 CPM
- inhibition at 740 µM (human lymphoid cells; Exp I, 740 μM): 16.3%
- inhibition at 2200 µM (human lymphoid cells; Exp I, 2.2 mM): 85.4%
- inhibition at 6700 µM (human lymphoid cells; Exp I, 6.7 mM): 9.99%
- inhibition at 20000 µM (human lymphoid cells; Exp I, 20 mM): 99.9%
- inhibition at 740 µM (human lymphoid cells; Exp II, 740 μM): 8.5%
- inhibition at 2200 µM (human lymphoid cells; Exp II, 2.2 mM): 68%
- inhibition at 6700 µM (human lymphoid cells; Exp II, 6.7 mM): 9.99%
- inhibition at 20000 µM (human lymphoid cells; Exp II, 20 mM): 99.9%
- viability ([1]; between 2.2 mM and 733 μM): ~100%
- viability at 3 µM ([1]; first individual, (+) PHA): 100%
- viability at 9 µM ([1]; first individual, (+) PHA): 100%
- viability at 27 µM ([1]; first individual, (+) PHA): 97%
- viability at 81 µM ([1]; first individual, (+) PHA): 96%
- viability at 244 µM ([1]; first individual, (+) PHA): 97%
- viability at 733 µM ([1]; first individual, (+) PHA): 90%
- viability at 2200 µM ([1]; first individual, (+) PHA): 89%
- viability at 6700 µM ([1]; first individual, (+) PHA): 8%
- viability at 20000 µM ([1]; first individual, (+) PHA): 0%
- viability at 3 µM ([1]; first individual, (-) PHA): 100%
- viability at 9 µM ([1]; first individual, (-) PHA): 100%
- viability at 27 µM ([1]; first individual, (-) PHA): 100%
- viability at 81 µM ([1]; first individual, (-) PHA): 100%
- viability at 244 µM ([1]; first individual, (-) PHA): 100%
- viability at 733 µM ([1]; first individual, (-) PHA): 96%
- viability at 2200 µM ([1]; first individual, (-) PHA): 94%
- viability at 6700 µM ([1]; first individual, (-) PHA): 7%
- viability at 20000 µM ([1]; first individual, (-) PHA): 0%
- viability at 3 µM ([1]; second individual, (+) PHA): 100%
- viability at 9 µM ([1]; second individual, (+) PHA): 100%
- viability at 27 µM ([1]; second individual, (+) PHA): 94%
- viability at 81 µM ([1]; second individual, (+) PHA): 98%
- viability at 244 µM ([1]; second individual, (+) PHA): 96%
- viability at 733 µM ([1]; second individual, (+) PHA): 94%
- viability at 2200 µM ([1]; second individual, (+) PHA): 93%
- viability at 6700 µM ([1]; second individual, (+) PHA): 6%
- viability at 20000 µM ([1]; second individual, (+) PHA): 0%
- viability at 3 µM ([1]; second individual, (-) PHA): 100%
- viability at 9 µM ([1]; second individual, (-) PHA): 100%
- viability at 27 µM ([1]; second individual, (-) PHA): 100%
- viability at 81 µM ([1]; second individual, (-) PHA): 100%
- viability at 244 µM ([1]; second individual, (-) PHA): 98%
- viability at 733 µM ([1]; second individual, (-) PHA): 95%
- viability at 2200 µM ([1]; second individual, (-) PHA): 94%
- viability at 6700 µM ([1]; second individual, (-) PHA): 4%
- viability at 20000 µM ([1]; second individual, (-) PHA): 0%
- viability ([2]; about 6.7 mM): little viability
- Cells/ml ([2]; first individual, (+) PHA, 3 μM): 0.48 X 10^6 Cells/ml
- Cells/ml ([2]; first individual, (+) PHA, 9 μM): 0.32 X 10^6 Cells/ml
- Cells/ml ([2]; first individual, (+) PHA, 27 μM): 0.37 X 10^6 Cells/ml
- Cells/ml ([2]; first individual, (+) PHA, 81 μM): 0.4 X 10^6 Cells/ml
- Cells/ml ([2]; first individual, (+) PHA, 244 μM): 0.38 X 10^6 Cells/ml
- Cells/ml ([2]; first individual, (+) PHA, 733 μM): 0.4 X 10^6 Cells/ml
- Cells/ml ([2]; first individual, (+) PHA, 2.2 mM): 0.3 X 10^6 Cells/ml
- Cells/ml ([2]; first individual, (+) PHA, 6.7 mM): 0.13 X 10^6 Cells/ml
- Cells/ml ([2]; first individual, (-) PHA, 3 μM): 0.60 X 10^6 Cells/ml
- Cells/ml ([2]; first individual, (-) PHA, 9 μM): 0.36 X 10^6 Cells/ml
- Cells/ml ([2]; first individual, (-) PHA, 27 μM): 0.60 X 10^6 Cells/ml
- Cells/ml ([2]; first individual, (-) PHA, 81 μM): 0.37 X 10^6 Cells/ml
- Cells/ml ([2]; first individual, (-) PHA, 244 μM): 0.35 X 10^6 Cells/ml
- Cells/ml ([2]; first individual, (-) PHA, 733 μM): 0.34 X 10^6 Cells/ml
- Cells/ml ([2]; first individual, (-) PHA, 2.2 mM): 0.36 X 10^6 Cells/ml
- Cells/ml ([2]; first individual, (-) PHA, 6.7 mM): 0.15 X 10^6 Cells/ml
- Cells/ml ([2]; second individual, (+) PHA, 3 μM): 0.50 X 10^6 Cells/ml
- Cells/ml ([2]; second individual, (+) PHA, 9 μM): 0.50 X 10^6 Cells/ml
- Cells/ml ([2]; second individual, (+) PHA, 27 μM): 0.40 X 10^6 Cells/ml
- Cells/ml ([2]; second individual, (+) PHA, 81 μM): 0.55 X 10^6 Cells/ml
- Cells/ml ([2]; second individual, (+) PHA, 244 μM): 0.52 X 10^6 Cells/ml
- Cells/ml ([2]; second individual, (+) PHA, 733 μM): 0.39 X 10^6 Cells/ml
- Cells/ml ([2]; second individual, (+) PHA, 2.2 mM): 0.42 X 10^6 Cells/ml
- Cells/ml ([2]; second individual, (+) PHA, 6.7 mM): 0.24 X 10^6 Cells/ml
- Cells/ml ([2]; second individual, (-) PHA, 3 μM): 0.5 X 10^6 Cells/ml
- Cells/ml ([2]; second individual, (-) PHA, 9 μM): 0.51 X 10^6 Cells/ml
- Cells/ml ([2]; second individual, (-) PHA, 27 μM): 0.43 X 10^6 Cells/ml
- Cells/ml ([2]; second individual, (-) PHA, 81 μM): 0.53 X 10^6 Cells/ml
- Cells/ml ([2]; second individual, (-) PHA, 244 μM): 0.46 X 10^6 Cells/ml
- Cells/ml ([2]; second individual, (-) PHA, 733 μM): 0.48 X 10^6 Cells/ml
- Cells/ml ([2]; second individual, (-) PHA, 2.2 mM): 0.42 X 10^6 Cells/ml
- Cells/ml ([2]; second individual, (-) PHA, 6.7 mM): 0.23 X 10^6 Cells/ml
- overall arthritis score ([3]; Exp. I (treated from same day), day 14): 2.4 ± 2.5
- overall arthritis score ([3]; Exp. I (treated from same day), day 16): 2.8 ± 2.4
- overall arthritis score ([3]; Exp. I (treated from same day), day 18): 3.4 ± 1.9
- overall arthritis score ([3]; Exp. I (treated from same day), day 20): 6.4 ± 3.6
- overall arthritis score ([3]; Exp. I (treated from same day), day 22): 6.8 ± 4.0
- overall arthritis score ([3]; Exp. I (treated from same day), day 24): 7.2 ± 4.1
- overall arthritis score ([3]; Exp. I (treated from same day), day 26): 6.2 ± 3.7
- overall arthritis score ([3]; Exp. II (treated from day 4), day 14): 1.6 ± 2.6
- overall arthritis score ([3]; Exp. II (treated from day 4), day 16): 2 ± 2.8
- overall arthritis score ([3]; Exp. II (treated from day 4), day 18): 3.2 ± 4.0
- overall arthritis score ([3]; Exp. II (treated from day 4), day 20): 4.0 ± 4.6
- overall arthritis score ([3]; Exp. II (treated from day 4), day 22): 4.8 ± 4.1
- overall arthritis score ([3]; Exp. II (treated from day 4), day 24): 4.8 ± 4.1
- overall arthritis score ([3]; Exp. II (treated from day 4), day 26): 5.6 ± 4.7
- overall arthritis score ([3]; Exp. III (treated from day 14), day 14): 1.2 ± 1.8
- overall arthritis score ([3]; Exp. III (treated from day 14), day 16): 1.4 ± 1.3
- overall arthritis score ([3]; Exp. III (treated from day 14), day 18): 1.4 ± 2.2
- overall arthritis score ([3]; Exp. III (treated from day 14), day 20): 4.8 ± 3.8
- overall arthritis score ([3]; Exp. III (treated from day 14), day 22): 4.4 ± 3.6
- overall arthritis score ([3]; Exp. III (treated from day 14), day 24): 4.4 ± 3.6
- overall arthritis score ([3]; Exp. III (treated from day 14), day 26): 3.0 ± 3.3
- effect on arthritis ([3]; comparison of treatment schedules, in words): most effective when it is administered 14 days after induction of the disease

Reference: patent publication US5216005A, “Immunosuppressive analogues and derivatives of succinylacetone” (priority 1990, dated 1993)
